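The compound was tested at five concentrations on cells cultured in 96-well plates, with a 48-hour exposure period. GI50: concentration for 50% inhibition of growth.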 The source made the active and inactive calls. Rule as the data show it: active = GI50 up to about 1.1 µM and inactive = higher.

Test systems include BT-549; CCRF-CEM; EKVX; HCT-15; HL-60; HT-29; M14; MDA-MB-435; MDA-N; MOLT-4; Malme-3M; NCI-H522; OVCAR-3; OVCAR-4; SF-268; SF-539; SN12C; SNB-75; U-251.
Common to all, as to assay: NCI tumour cell line growth inhibition, 48 h

As for `COc1ccc(OC)c2c1-c1nnnn1CCC2(C)C`, the GI50 is > 100 µM (inactive) in the assay on BT-549; > 100 µM (inactive) in the assay with CCRF-CEM; > 100 µM (inactive) in the assay on EKVX; over 100 µM with HCT-15; > 100 µM (inactive) in the assay on HL-60; > 100 µM (inactive) in the assay with HT-29. Also, the GI50 in the assay with M14, in the assay with MDA-MB-435, in the assay with MDA-N, in the assay with MOLT-4, with Malme-3M and in the assay with NCI-H522 was > 100 µM (inactive) in each case. For the same molecule, the GI50 in the assay on OVCAR-3, in the assay with OVCAR-4, in the assay on SF-268, in the assay with SF-539, with SN12C and in the assay on SNB-75 was > 100 µM (inactive) throughout. Besides, the GI50 in the assay with U-251 was > 100 µM (inactive).
As to `CCCNC(=O)c1cc(NC(=O)c2cc(NC(=O)/C=C/c3ccccc3)c(OC)c(OC)c2)c(OC)c(OC)c1`, the GI50 with BT-549 is 17.8 µM (inactive); with CCRF-CEM it was > 100 µM (inactive); in the assay on EKVX, 15.8 µM (inactive); in the assay with HCT-15 it was 92.3 µM; in the assay with HL-60 it was > 100 µM (inactive); in the assay on HT-29, 11.8 µM (inactive). Besides, the GI50 with M14 was 38.4 µM (inactive); in the assay with MDA-MB-435, 12 µM (inactive); with MDA-N, 13.8 µM (inactive); with MOLT-4, > 100 µM (inactive); in the assay with Malme-3M, 3.08 µM (inactive); in the assay with NCI-H522, 4.72 µM (inactive). Moreover, the GI50 with OVCAR-3 is 4.01 µM (inactive); in the assay on OVCAR-4 it was 2.54 µM (inactive); in the assay with SF-268, 2.05 µM (inactive); in the assay on SF-539, 6.14 µM (inactive); in the assay on SN12C it was 0.248 µM (active); with SNB-75 it was 2.49 µM (inactive). In the assay with U-251, the GI50 is 4.11 µM (inactive).
For the molecule `O=C1c2cccc3cccc(c23)C(=O)N1CCCNCCCCNCCCN1C(=O)c2cccc3cccc(c23)C1=O`, the GI50 with BT-549 was 1.25 µM (inactive); with CCRF-CEM it was < 0.01 µM (active); in the assay on EKVX it was 0.986 µM (active); with HCT-15, 3.22 µM; with HL-60 it was 0.32 µM (active); with HT-29, 0.0315 µM (active). For the same molecule, the GI50 with M14 is 0.604 µM (active); in the assay on MDA-MB-435, 0.159 µM (active); in the assay on MDA-N, 0.256 µM (active); in the assay with MOLT-4, < 0.01 µM (active); in the assay on Malme-3M, 0.144 µM (active); in the assay on NCI-H522 it was < 0.0112 µM (active). In addition, the GI50 is 0.2 µM (active) in the assay on OVCAR-3; 0.2 µM (active) in the assay on OVCAR-4; 0.025 µM (active) in the assay on SF-268; 0.0843 µM (active) in the assay on SF-539; 0.104 µM (active) in the assay with SN12C; 0.202 µM (active) in the assay on SNB-75. In the assay on U-251, the GI50 is 0.0402 µM (active).
Turning to `CC(C)C1/C(=N/O)CC(c2ccccc2)N(N=O)C1c1ccccc1` (centres undefined), the GI50 in the assay with BT-549 was 50.2 µM (inactive); with CCRF-CEM it was 26.9 µM (inactive); with EKVX, 20.9 µM (inactive); in the assay on HCT-15 it was 40.6 µM; in the assay with HL-60, 32.1 µM (inactive); in the assay with HT-29, 21.2 µM (inactive). The GI50 in the assay on M14 is 40.7 µM (inactive); with MDA-MB-435, 26.7 µM (inactive); in the assay on MDA-N, 39.2 µM (inactive); with MOLT-4, 32.3 µM (inactive); in the assay on Malme-3M, 23 µM (inactive); in the assay on NCI-H522, 37 µM (inactive). Besides, the GI50 is 36.8 µM (inactive) in the assay with OVCAR-3; 22.8 µM (inactive) in the assay with OVCAR-4; 51.8 µM (inactive) in the assay on SF-268; 57.8 µM (inactive) with SF-539; 53.7 µM (inactive) in the assay with SN12C; 38.8 µM (inactive) in the assay with SNB-75. Moreover, in the assay on U-251, the GI50 is 52.7 µM (inactive).
`COC(O)C12OC3CO[Si](C(C)C)(C(C)C)O[Si](C(C)C)(C(C)C)OC3C1Oc1nc(=O)ccn12` (centres undefined): the GI50 was 15.5 µM (inactive) in the assay on BT-549; 4.5 µM (inactive) in the assay with CCRF-CEM; 13.6 µM (inactive) with EKVX; 16.3 µM with HCT-15; 3.29 µM (inactive) in the assay on HL-60; 6.73 µM (inactive) in the assay with HT-29. Moreover, the GI50 is 12.7 µM (inactive) in the assay on M14; 12.3 µM (inactive) in the assay on MDA-MB-435; 12.8 µM (inactive) with MDA-N; 2.15 µM (inactive) in the assay on MOLT-4; 13.1 µM (inactive) in the assay with Malme-3M; 4.88 µM (inactive) with NCI-H522. Also, the GI50 in the assay on OVCAR-3 is 11.3 µM (inactive); in the assay with OVCAR-4 it was 14.2 µM (inactive); in the assay on SF-268, 9.91 µM (inactive); in the assay with SF-539, 15.7 µM (inactive); in the assay on SN12C it was 13.3 µM (inactive); in the assay on SNB-75 it was 26.2 µM (inactive). Moreover, in the assay with U-251, the GI50 is > 31.7 µM (inactive).
On to `CCOP(=O)(OCC)/C(C#N)=C/c1ccc(-c2ccc(F)cc2F)o1`, for which the GI50 was 11.7 µM (inactive) with BT-549; 14.6 µM (inactive) in the assay with CCRF-CEM; 16.3 µM (inactive) in the assay on EKVX; 13.5 µM in the assay with HCT-15; 12.3 µM (inactive) in the assay with HL-60; 16.5 µM (inactive) with HT-29. The GI50 in the assay with M14 is 17.2 µM (inactive); in the assay on MDA-MB-435 it was 12.6 µM (inactive); with MDA-N it was 33.7 µM (inactive); in the assay with MOLT-4, 10.6 µM (inactive); in the assay with Malme-3M, 18.4 µM (inactive); in the assay on NCI-H522 it was 15.3 µM (inactive). For the same molecule, the GI50 in the assay with OVCAR-3 was 14.9 µM (inactive); in the assay on OVCAR-4, 18.2 µM (inactive); in the assay with SF-268, 17.3 µM (inactive); in the assay with SF-539, 20.7 µM (inactive); in the assay on SN12C, 15.8 µM (inactive); in the assay on SNB-75, 18.5 µM (inactive). The GI50 in the assay with U-251 is 14.8 µM (inactive).
Take `CN(C)CCSS(=O)(=O)O`: the GI50 was > 100 µM (inactive) with BT-549; > 100 µM (inactive) in the assay with CCRF-CEM; > 100 µM (inactive) in the assay on EKVX; over 100 µM in the assay with HCT-15; > 100 µM (inactive) in the assay with HL-60; > 100 µM (inactive) in the assay on HT-29. In addition, the GI50 was > 100 µM (inactive) in the assay with M14; > 100 µM (inactive) in the assay on MDA-MB-435; > 100 µM (inactive) with MDA-N; > 100 µM (inactive) in the assay with MOLT-4; > 100 µM (inactive) in the assay on Malme-3M; 83.9 µM (inactive) in the assay on NCI-H522. In addition, the GI50 in the assay on OVCAR-3 is 9.16 µM (inactive); with OVCAR-4, > 100 µM (inactive); in the assay on SF-268 it was > 100 µM (inactive); with SF-539, > 100 µM (inactive); in the assay on SN12C it was > 100 µM (inactive); in the assay with SNB-75, < 0.01 µM (active). Further, in the assay on U-251, the GI50 was 30.2 µM (inactive).
Regarding `Cc1occc1C(=S)Nc1ccc(Cl)c(C(=O)OCC(C)C)c1`, the GI50 was 17.2 µM (inactive) in the assay on BT-549; 26.5 µM (inactive) in the assay on CCRF-CEM; 15.6 µM (inactive) in the assay with EKVX; 16.9 µM in the assay on HCT-15; 29.4 µM (inactive) in the assay with HL-60; 13.2 µM (inactive) in the assay on HT-29. In addition, the GI50 is 22.8 µM (inactive) with M14; 16.5 µM (inactive) with MDA-MB-435; 21.1 µM (inactive) in the assay with MDA-N; 11.5 µM (inactive) in the assay with MOLT-4; 19.3 µM (inactive) in the assay on Malme-3M; 14.1 µM (inactive) in the assay with NCI-H522. The GI50 was 22.4 µM (inactive) in the assay with OVCAR-3; 13.3 µM (inactive) in the assay on OVCAR-4; 21.4 µM (inactive) in the assay with SF-268; 22.3 µM (inactive) in the assay with SF-539; 16.8 µM (inactive) in the assay on SN12C; 15.3 µM (inactive) with SNB-75. The GI50 in the assay on U-251 is 17.6 µM (inactive).
With `CCOC(=O)COC1=Nc2cc(OC)c(OC)c3nc(Cl)cc(c23)C1=O`, the GI50 was 1.95 µM (inactive) in the assay on BT-549; 0.299 µM (active) with CCRF-CEM; 0.716 µM (active) in the assay with EKVX; 2.34 µM in the assay with HCT-15; 0.252 µM (active) in the assay with HL-60; 2.29 µM (inactive) in the assay with HT-29. Moreover, the GI50 with M14 was 1.65 µM (inactive); with MDA-MB-435, 1.4 µM (inactive); in the assay on MDA-N, 1.18 µM (inactive); in the assay with MOLT-4 it was 0.383 µM (active); with Malme-3M, 1.36 µM (inactive); in the assay on NCI-H522 it was 1.6 µM (inactive). The GI50 in the assay on OVCAR-3 was 1.75 µM (inactive); in the assay with OVCAR-4, 1.67 µM (inactive); in the assay with SF-268 it was 2.37 µM (inactive); in the assay on SF-539, 1.92 µM (inactive); with SN12C, 1.8 µM (inactive); with SNB-75, 2.51 µM (inactive). Besides, in the assay on U-251, the GI50 is 2.94 µM (inactive).
For the molecule `C[C@]12CCC(=O)C=C1CC[C@@H]1[C@@H]2CC[C@]2(C)C(=O)/C(=C/c3ccncc3)C[C@@H]12`, the GI50 in the assay on BT-549 was 19.2 µM (inactive); in the assay with CCRF-CEM it was 14.7 µM (inactive); with EKVX, 14.6 µM (inactive); in the assay on HCT-15, 15.3 µM; in the assay with HL-60 it was 8.51 µM (inactive); in the assay with HT-29 it was 10.2 µM (inactive). Further, the GI50 in the assay on M14 was 14.6 µM (inactive); in the assay on MDA-MB-435 it was 17.1 µM (inactive); in the assay with MDA-N, 20.1 µM (inactive); with MOLT-4, 16.4 µM (inactive); in the assay on Malme-3M, 15.7 µM (inactive); with NCI-H522 it was 15.3 µM (inactive). Moreover, the GI50 is 13 µM (inactive) with OVCAR-3; 17.2 µM (inactive) in the assay on OVCAR-4; 18.8 µM (inactive) with SF-268; 7.4 µM (inactive) in the assay on SF-539; 16.7 µM (inactive) in the assay on SN12C; 19.6 µM (inactive) in the assay on SNB-75. In addition, the GI50 with U-251 was 12.4 µM (inactive).
Turning to `N#Cc1sc2c(c1OC(=O)c1cccs1)c(=O)n(-c1ccccc1)c(=S)n2-c1ccccc1`, the GI50 in the assay with BT-549 was 15.5 µM (inactive); in the assay with CCRF-CEM it was > 10 µM (inactive); in the assay on EKVX, 33.2 µM (inactive); in the assay on HCT-15, 17.3 µM; in the assay on HL-60 it was 21.3 µM (inactive); in the assay with HT-29, 29.5 µM (inactive). The GI50 in the assay on M14 is 19.1 µM (inactive); in the assay with MDA-MB-435, 29.9 µM (inactive); in the assay on MDA-N, 26.7 µM (inactive); with MOLT-4 it was 19.4 µM (inactive); in the assay with Malme-3M, 18.2 µM (inactive); with NCI-H522, 16.4 µM (inactive). The GI50 in the assay on OVCAR-3 is 31.1 µM (inactive); with OVCAR-4 it was 20.7 µM (inactive); in the assay on SF-268, 30.1 µM (inactive); in the assay with SF-539 it was 22.4 µM (inactive); in the assay with SN12C, 19.2 µM (inactive); with SNB-75 it was 38.7 µM (inactive). Moreover, the GI50 with U-251 was 20.2 µM (inactive).

Values taken from ChEMBL document CHEMBL1201862, “PubChem BioAssay data set” (2004).
